The target in test [1] is T1, MMP-3 (Homo sapiens, UniProt P08254).
T1 construct: The active MMP-3 was obtained by treatment of proMMP-3 with trypsin; endogenous in cells; host or cells: human rheumatoid synovial fibroblasts stimulated with macrophage-conditioned medium
The test is described as follows: Determination of inhibition constant (Ki) for MMP-3, fluorogenic substrate assay. The following applies: substrate Mca-Pro-Leu-Gly-Leu-Dpa-Ala-Arg-NH2, 37°C, pH 7.6, [S] = 1 µM, [MMP-3] = 1 nM. It counts as biochemical. The procedure: ProMMP-3 (EC 3.4.24.17; Stromelysin-1) was purified from culture medium of human rheumatoid synovial fibroblasts stimulated with macrophage-conditioned medium according to Okada, Y. et al., J. Biol. Chem. 261, 14245-14255 (1986). The active MMP-3 was obtained by treatment of proMMP-3 with trypsin (5 µg/mL) at 37°C for 30 minutes, followed by addition of soybean trypsin inhibitor (50 µg/mL). Aliquots of the activated MMP-3 were stored at -20°C.
The activated MMP-3 is assayed using a fluorogenic substrate, Mca-Pro-Leu-Gly-Leu-Dpa-Ala-Arg-NH2, Knight, C.G. et al., FEBS Lett. 296, 263-266 (1992), at 37°C in an assay buffer containing 50 mM Tris, pH 7.6, 0.2 M sodium chloride, 50 mM calcium chloride, and 0.02% Brij-35. The increase in fluorescence due to cleavage of Gly-Leu peptide bond by MMP-3 was monitored with Perkin-Elmer LS50B Fluorimeter (λex 328 nm, λem 393 nm, excitation slit 2.5, emission slit 10). Substrate and inhibitor stock solutions were made in DMF and 0.1% HCI-DMF, respectively. For determination of Ki values for MMP-3 inhibitors, a series of intermediate inhibitor solutions were prepared in 0.1% HCl-DMF and 1 or 2 µL of the diluted inhibitor solution was mixed with 1 µL of 2 mM substrate solution in DMF in a quartz cuvette containing 2 mL of assay buffer. The enzyme (10 µL of 0.2 µM MMP-3 dilution in assay buffer) was added at the last to start the reaction. For routine measurement of a Ki value for a reversible, competitive inhibitor, the initial rates in the presence of at least four inhibitor concentrations (two concentrations above Ki and two concentrations below Ki) were measured using [S] = 1 µM (<< Km) and [MMP-3] = 1 nM. Under these conditions, the measured Ki, app is close to true Ki.
The Ki for a competitive inhibitor is calculated using: v0/vi = (1 + [I]/Ki, app) and Ki = Ki, app/(1 + [S]/Km), where v0 is the initial rate in the absence of inhibitor, vi is the initial rate in the presence of inhibitor at the concentration of [I], [S] is the substrate concentration, and Km is the Michaelis constant. If slow binding is observed (i.e. if the approach to the binding equilibrium is slow), the final steady-state rate rather than the initial rate is taken as vi.

For test [2], the target named is T2, MMP-12 (Homo sapiens, UniProt P39900).
T2 construct: made in house
The experiment in a line: Determination of inhibition constant (Ki) for MMP-12 (macrophage metalloelastase), fluorogenic substrate assay, cuvette or microtiter plate. The test is classed as biochemical. The following applies: substrate Mca-Pro-Leu-Gly-Leu-Dpa-Ala-Arg-NH2, 25°C, pH 7.6, [MMP-12] = 2 nM. The procedure:
MMP-12 (EC 3.4.24.65) was cloned, expressed and purified according to Shapiro, S.D. et al., J Biol. Chem. 268, 23824-23829 (1993). […] Aliquots of MMP-12 were stored at -70C.
The potency of inhibitors of MMP-12 was measured using either quartz cuvettes or microtiter plates. The activity of MMP-12 was measured using a fluorogenic substrate, Mca-Pro-Leu-Gly-Leu-Dpa-Ala-Arg-NH2, Knight, C.G. et al., FEBS Lett. 296, 263-266 (1992), at 25°C in an assay buffer containing 50 mM Tris, pH 7.6, 0.2 M sodium chloride, 50 mM calcium chloride, and 0.02% Brij-35. The increase in fluorescence due to cleavage of Gly-Leu peptide bond by MMP-12 was monitored with a Perkin-Elmer LS50B Fluorimeter (λex 328 nm, λem 393 nm, excitation slit 2.5, emission slit 10) for the cuvette assay and with a Molecular Devices Fmax fluorescence plate reader (λex 320 nm, λem 405 nm) for the microtiter plate assay. Substrate and inhibitor stock solutions were made in N,N-dimethylformamide (DMF) and 0.1% HCl-DMF, respectively.
Ki values were determined using the cuvette method by preparing a series of intermediate inhibitors solutions in 0.1% HCl-DMF and mixing the inhibitor with substrate (final concentration 2 µM) in a quartz cuvette containing 2 ml of assay buffer. MMP-12 was added to start the reaction at a concentration of 2 nM and progress curves were generated. For routine measurement of a Ki value for a reversible competitive inhibitor, the initial rates in the presence of at least four inhibitor concentrations (two concentrations above and two concentrations below the Ki) were measured [S] = 2 µM (<<Km) and [MMP-12] = 2 nM. Under these conditions, the measured Ki,app is close to the true Ki.
Ki values were determined using the microtiter plate method in a manner similar to that described for the cuvette method with some modifications. Four different inhibitor concentrations (50 µl in assay buffer) of each compound were added to separate wells of a microtiter plate and substrate was added (100 µl) to get a final concentration of […]. MMP-12 was added to a final concentration of 2 nM (50 µl) to start the reaction. Cleavage of substrate was recorded every 30 seconds for 30 minutes and progress curves were generated.
The Ki for a competitive inhibitor was calculated using: Vo/Vi = (1+[I]/Ki,app) and Ki = Ki,app/(1+[S]/Km), where Vo is the initial rate in the absence of inhibitor, Vi is the initial rate in the presence of inhibitor at the concentration of [I], [S] is the substrate concentration, and Km is the Michaelis constant. If slow binding is observed (i.e. if the approach to the binding equilibium is slow), the final steady-state rate rather than the initial rate is taken as Vi.

The pKi is the negative decadic logarithm of the Ki, by convention in mol/L.

pKi: −log10 of the molar value. Counter-ions that a name gives are not always drawn.

T2 sequence (P39900 106-263 limits assumed): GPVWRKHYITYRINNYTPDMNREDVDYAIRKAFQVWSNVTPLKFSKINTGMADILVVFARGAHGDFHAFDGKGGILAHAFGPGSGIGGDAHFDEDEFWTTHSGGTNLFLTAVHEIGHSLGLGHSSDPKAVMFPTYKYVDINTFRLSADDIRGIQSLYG
T1 sequence (P08254 100-477): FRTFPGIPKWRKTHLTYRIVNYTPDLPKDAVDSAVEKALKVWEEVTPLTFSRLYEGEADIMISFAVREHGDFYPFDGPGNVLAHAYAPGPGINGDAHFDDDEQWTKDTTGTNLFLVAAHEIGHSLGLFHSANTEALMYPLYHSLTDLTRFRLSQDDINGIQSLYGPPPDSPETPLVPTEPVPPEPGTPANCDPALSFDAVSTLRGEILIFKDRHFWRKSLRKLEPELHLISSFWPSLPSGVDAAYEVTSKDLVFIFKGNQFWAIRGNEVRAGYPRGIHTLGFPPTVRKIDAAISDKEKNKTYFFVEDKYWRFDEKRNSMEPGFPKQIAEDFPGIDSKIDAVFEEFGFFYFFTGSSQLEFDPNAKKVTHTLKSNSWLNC

As for `CC(C)C[C@H](NC(=O)C(S)C(C)C)C(=O)N[C@@H](Cc1ccccc1)C(=O)O` (stereo in doubt) [Example 3, (S)-2-Mercapto-3-methylbutyroyl-(L)-leucyl-(L)-phenylalanine], the values for the pKi in test [1] and in test [2] were 5.85 and 7.85, respectively.

Turning to `CSCC[C@H](NC(=O)C(S)C(C)C)C(=O)N[C@@H](Cc1ccccc1)C(=O)O` (stereo in doubt) [Example 4, (S)-2-Mercapto-3-methylbutyroyl-(L)-methionyl-(L)-phenylalanine], the pKi in test [1] is 6.35; in test [2], 7.85.

In the case of `CC(C)C(S)C(=O)N[C@@H](CCCCN)C(=O)N[C@@H](Cc1ccccc1)C(=O)O` (stereo in doubt) [Example 5, (S)-2-Mercapto-3-methylbutyroyl-(L)-lysyl-(L)-phenylalanine trifluoroacetic acid salt], the pKi was 5.81 in test [1] and 6.82 in test [2].

Turning to `CCCC(S)C(=O)N[C@@H](CCc1ccccc1)C(=O)N[C@@H](Cc1ccccc1)C(=O)O` (some centres unmarked) [Example 1, 2-Mercapto-pentanoyl-(L)-homo-phenylalanyl-(L)-phenylalanine], the results for the pKi in test [1] and in test [2] were 6.12 and 7.89, respectively.

Regarding `CC(C)[C@H](S)C(=O)N[C@@H](CCc1ccccc1)C(=O)N[C@@H](Cc1ccccc1)C(=O)O` [Example 2, (S)-2-Mercapto-3-methylbutyroyl-(L)-homo-phenylalanyl-(L)-phenylalanine], the pKi in test [1] was 6.44; in test [2], 8.40.

`CCCC(S)C(=O)N[C@@H](CCc1ccccc1)C(=O)N[C@@H](Cc1ccccc1)C(=O)NC` (stereo partly drawn) [Example 6, (S)-2-Mercaptopentanoyl-(L)-homo-phenylalanyl-(L)-phenylalanine N-methyl amide]: the negative logarithm of the Ki (pKi) in test [1] and in test [2] was 7.85 each time.

`CNC(=O)[C@H](Cc1ccccc1)NC(=O)[C@H](CCc1ccccc1)NC(=O)[C@@H](S)C(C)C` [Example 7, (S)-2-Mercapto-3-methylbutyroyl-(L)-homo-phenylalanyl-(L)-phenylalanine N-methyl amide]: the pKi is 8.00 in test [1] and 9.22 in test [2].

These data come from patent EP1140984B1, “SELECTIVE INHIBITORS OF MMP-12” (Aventis Pharmaceuticals Inc., priority 1998, dated 2000).
